Test results reported in ChEMBL document CHEMBL1955835, “Effects of the indolocarbazole 3744W on the tyrosine kinase activity of the cytoplasmic domain of the platelet-derived growth factor beta-receptor” (Cell Signal, 1999).
Calls of active or inactive are those of the source. No cut-off for these calls is given here.

Experiments:
[1] = Inhibition of PDGF-dependent PDGFR autophosphorylation in rat A10 cells; format: cell-based
[2] = Inhibition of PDGF-dependent PDGFR-mediated cell proliferation in rat A10 cells; format: cell-based
[3] = target: T1, Platelet-derived growth factor receptor beta (Homo sapiens, UniProt P09619); test: Inhibition of recombinant cytoplasmic domain of PDGFRbeta autophosphorylation expressed in baculovirus infected Sf21 insect cells using [gamma-33P]ATP by SDS-PAGE based scintillation counting
T1 sequence (P09619 whole entry, the tested form may be a part): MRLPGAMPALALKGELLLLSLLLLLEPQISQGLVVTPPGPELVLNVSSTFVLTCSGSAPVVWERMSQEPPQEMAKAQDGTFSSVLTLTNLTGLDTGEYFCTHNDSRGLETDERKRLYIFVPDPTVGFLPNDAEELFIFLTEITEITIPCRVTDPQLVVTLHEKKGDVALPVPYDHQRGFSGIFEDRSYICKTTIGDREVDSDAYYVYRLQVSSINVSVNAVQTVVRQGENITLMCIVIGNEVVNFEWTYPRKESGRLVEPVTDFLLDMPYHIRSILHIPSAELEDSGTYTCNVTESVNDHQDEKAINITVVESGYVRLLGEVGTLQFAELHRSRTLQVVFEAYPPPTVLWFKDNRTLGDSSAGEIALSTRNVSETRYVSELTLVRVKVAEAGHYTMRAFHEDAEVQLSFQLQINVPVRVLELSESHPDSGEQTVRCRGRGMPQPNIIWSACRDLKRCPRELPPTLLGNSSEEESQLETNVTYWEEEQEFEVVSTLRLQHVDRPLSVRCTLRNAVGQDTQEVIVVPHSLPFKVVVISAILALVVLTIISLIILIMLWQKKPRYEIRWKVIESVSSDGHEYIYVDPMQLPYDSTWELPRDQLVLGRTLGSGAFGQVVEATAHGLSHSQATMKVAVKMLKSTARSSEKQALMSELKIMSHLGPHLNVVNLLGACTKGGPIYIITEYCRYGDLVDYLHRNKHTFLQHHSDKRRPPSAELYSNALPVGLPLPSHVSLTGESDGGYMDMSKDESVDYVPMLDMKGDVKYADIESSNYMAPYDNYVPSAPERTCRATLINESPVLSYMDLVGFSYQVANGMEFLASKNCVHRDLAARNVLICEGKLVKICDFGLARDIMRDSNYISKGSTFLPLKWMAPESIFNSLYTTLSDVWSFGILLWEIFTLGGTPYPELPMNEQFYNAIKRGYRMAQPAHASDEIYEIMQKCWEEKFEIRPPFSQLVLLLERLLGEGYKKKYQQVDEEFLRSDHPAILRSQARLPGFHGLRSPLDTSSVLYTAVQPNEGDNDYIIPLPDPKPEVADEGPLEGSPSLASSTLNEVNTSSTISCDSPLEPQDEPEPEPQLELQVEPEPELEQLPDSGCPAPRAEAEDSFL

[4] = target: T1, Platelet-derived growth factor receptor beta; test: Inhibition of recombinant cytoplasmic domain of PDGFRbeta expressed in baculovirus infected Sf21 insect cells using poly(Glu4,Tyr1) and [gamma-33P]ATP at 100 uM by SDS-PAGE based scintillation counting
[5] = target: T1, Platelet-derived growth factor receptor beta; test: Inhibition of recombinant cytoplasmic domain of PDGFRbeta expressed in baculovirus infected Sf21 insect cells using 10 fold less poly(Glu4,Tyr1) and [gamma-33P]ATP at 100 uM by SDS-PAGE based scintillation counting
[6] = target: T1, Platelet-derived growth factor receptor beta; test: Inhibition of recombinant cytoplasmic domain of PDGFRbeta expressed in baculovirus infected Sf21 insect cells assessed as tyrosine phosphorylation treated 30 hrs after infection measured after 48 hrs of post infection by Western blotting

IC50 [1]: 15 nM
IC50 [3]: 1800 nM
inhibition [3]: Dose-dependent effect
inhibition [4]: inactive
inhibition [5]: inactive
IC50 [6]: 2000 nM
inhibition [6]: Dose-dependent effect
SMILES: COc1ccc2[nH]c3c4[nH]c5ccc(OC)cc5c4c4c(c3c2c1)C(=O)NC4=O [GW296115X]
IC50 [2]: 10 nM
